These results are taken from US5196427A, “3-aryl-4(3H) quinazolinone CCK antagonists and pharmaceutical formulations thereof” (Eli Lilly and Company, priority 1991, dated 1993).

Read-outs that look alike come from different tables or passages of the source.

One may read the inhibition as the drop in the measured response relative to a control, in per cent. As usually defined, the IC50 is the point on the concentration scale where inhibition reaches its midpoint.

The test has as its target T1, Brain CCK receptor (Mus musculus, UniProt P56481).
T1 construct: from tissue; host or cells: forebrain membranes of male CF-1 mice
T1 sequence (P56481 1-453): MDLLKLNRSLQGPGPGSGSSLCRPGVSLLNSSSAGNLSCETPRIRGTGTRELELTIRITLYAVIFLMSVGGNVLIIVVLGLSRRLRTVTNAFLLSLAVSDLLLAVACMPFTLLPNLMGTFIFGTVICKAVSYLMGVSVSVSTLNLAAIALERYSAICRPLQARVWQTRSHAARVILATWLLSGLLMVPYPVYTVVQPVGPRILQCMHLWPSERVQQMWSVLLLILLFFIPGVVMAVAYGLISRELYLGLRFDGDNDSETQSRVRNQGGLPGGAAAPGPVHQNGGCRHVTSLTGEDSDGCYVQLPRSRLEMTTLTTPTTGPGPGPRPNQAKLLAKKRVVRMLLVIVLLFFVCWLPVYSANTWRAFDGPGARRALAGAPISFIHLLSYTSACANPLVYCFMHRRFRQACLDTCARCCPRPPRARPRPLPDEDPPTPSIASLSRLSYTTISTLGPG
The test can be described thus: Brain CCK receptor binding (mouse brain membranes, 125I-CCK-8 sulfate). The protocol: Brain CCK receptor binding was performed using mouse brain membranes according to the method of Chang and Lotti (Proc. Natl. Acad. Sci. 83: 4923-4926, 1986). Male CF-1 mice, 23-25 g were sacrificed by cervical dislocation, the forebrain removed and placed in ice cold 50 mM Tris buffer, pH 7.4. The tissue was homogenized in 100 volumes of the Tris buffer with a Brinkman Polytron or Tekmar Tissumizer and then centrifuged at 40,000 g for 10 min. Pellets were resuspended in Tris buffer, centrifuged as above and then resuspended in 100 volumes of assay buffer, pH 6.5 (20 mM N-2-hydroxyethyl-piperazine-N'-2-ethane sulfonic acid (HEPES), 1 mM ethylene glycol bis(2-aminoethyl ether-N,N,N',N'-tetraaceticacid) (EGTA), 5 mM MgCl2, 130 mM NaCl, and 0.25 mg/ml bacitracin). The binding assay consisted of 50 μL of compound (or buffer for total binding), 50 μL of ^125 I-CCK-8 sulfate (20 pM) (Amersham IM-159), 200 μL of assay buffer and 200 μL of homogenate (80-120 μg protein). The samples were incubated at room temperature (25°) for 2 hours, and they were then filtered through GF/B glass fiber filters (soaked in wash buffer for 2 hours before use) using a 48 well Brandel cell harvester designed for receptor binding. The filters were washed twice with 3 ml of 50 mM Tris buffer, pH 7.4, containing 0.01% BSA and then counted for radioactivity in plastic tubes with a Micromedic 10/600 automatic gamma counter.
Compounds were dissolved in dimethyl sulfoxide (DMSO) at a concentration of 10 mM and then further diluted with assay buffer. […] IC-50 values of displacement curves were determined using 7 concentrations of compound and were calculated using the ALLFIT computer program of DeLean, Munson and Rodbard (Am. J. Physiol. 235: E97-E102, 1978). Non-specific binding was determined as the displacement of the radioligand by 100 nM CCK-8 sulfate.

The mark [1] stands for this setting: read-out: Brain % inhibition in binding assay, mouse brain membranes.
The mark [2] stands for this setting: mouse brain membranes, Mean ± SEM, n = 3, values without SEM n = 1, read-out: Brain IC50.
[3] abbreviates: mouse brain membranes, read-out: Brain % inhibition in binding assay.

On to `O=c1c2ccccc2nc(Cc2c[nH]c3ccccc23)n1-c1ccccc1` [Example 2, 2-(3-Indolylmethyl)-3-phenyl-4-(3H)quinazolinone], for which the inhibition at 10 µM under setting [1] amounted to 36%. Turning to `COc1ccc2[nH]cc(CCc3nc4ccccc4c(=O)n3-c3ccccc3)c2c1` [Example 3, 2-[2-(5-methoxyindol-3-yl)-ethyl]-3-phenyl-4-(3H)quinazolinone], under setting [2], the IC50 was 0.41 µM. As for `COc1cccc(-n2c(CC(c3ccccc3)c3c[nH]c4ccccc34)nc3ccccc3c2=O)c1` (centres unmarked) [Example 5, 2-[2-Phenyl-2-(3-indolyl)ethyl]-3-(3-methoxyphenyl)-4-(3H)quinazolinone], 1 µM produced 57% inhibition (mouse brain membranes).

Take `O=c1c2ccccc2nc(CCc2c[nH]c3cc(Cl)ccc23)n1-c1ccccc1` [Example 7]: under setting [2], the IC50 came to 1.1 µM. As for `O=c1c2ccccc2nc(CCc2c[nH]c3ccccc23)n1-c1ccccc1F` [Example 8], the inhibition at 10 µM under setting [1] was 75%. The same measure, in the same setting: the result for `O=c1c2ccccc2nc(CCc2c[nH]c3ccccc23)n1-c1ccccc1Cl` [Example 9] reads 44%. Same read-out and setting: the result for `COc1ccccc1-n1c(CCc2c[nH]c3ccccc23)nc2ccccc2c1=O` [Example 10] reads 74%. On to `O=c1c2ccccc2nc(CCc2c[nH]c3ccccc23)n1-c1ccccc1C(F)(F)F` [Example 11], for which the inhibition at 10 µM under setting [3] came out at 35%. With `COc1cccc(-n2c(CCc3c[nH]c4ccc(F)cc34)nc3ccccc3c2=O)c1` [Example 18], the concentration for half-maximal inhibition (IC50) under setting [2] stood at 0.11 ± 0.01 µM. On the same count and under the same terms, the result for `COc1cccc(-n2c(CCc3c[nH]c4ccc(Cl)cc34)nc3ccccc3c2=O)c1` [Example 19] reads 0.047 ± 0.003 µM. The same measure, in the same setting: the result for `COc1cccc(-n2c(CCc3c[nH]c4ccc(C)cc34)nc3ccccc3c2=O)c1` [Example 21] reads 0.055 ± 0.003 µM; that for `COc1cccc(-n2c(CCc3c[nH]c4ccc(OC)cc34)nc3ccccc3c2=O)c1` [Example 22], 0.067 ± 0.005 µM. With `CCOc1cccc(-n2c(CCc3c[nH]c4ccc(OC)cc34)nc3ccccc3c2=O)c1` [Example 24], the 50% inhibitory concentration (IC50) under setting [2] amounted to 0.033 µM. In the case of `CC(C)Oc1cccc(-n2c(CCc3c[nH]c4ccccc34)nc3ccccc3c2=O)c1` [Example 25], the IC50 under setting [2] was 0.026 ± 0.0003 µM.

On to `CC(C)Oc1cccc(-n2c(CCc3c[nH]c4ccc(Cl)cc34)nc3ccccc3c2=O)c1` [Example 26], for which the IC50 under setting [2] came to 0.019 ± 0.005 µM. As for `COc1ccc2[nH]cc(CCc3nc4ccccc4c(=O)n3-c3cccc(OC(C)C)c3)c2c1` [Example 27], under setting [2], the IC50 was 0.019 µM. The same measure, in the same setting: the result for `CSc1cccc(-n2c(CCc3c[nH]c4ccc(Br)cc34)nc3ccccc3c2=O)c1` [Example 32] reads 0.046 ± 0.008 µM; that for `COc1ccc2[nH]cc(CCc3nc4ccccc4c(=O)n3-c3cccc(SC)c3)c2c1` [Example 33], 0.034 µM. On the same count and under the same terms, the same measure for `O=c1c2ccccc2nc(CCc2c[nH]c3ccc(Br)cc23)n1-c1cccc(C(F)(F)F)c1` [Example 34]: 0.23 ± 0.03 µM; for `O=c1c2ccccc2nc(CCc2c[nH]c3ccc(Cl)cc23)n1-c1cccc(C(F)(F)F)c1` [Example 35]: 0.23 µM. Same read-out and setting: the same measure for `Cc1ccc2[nH]cc(CCc3nc4ccccc4c(=O)n3-c3cccc(C(F)(F)F)c3)c2c1` [Example 36]: 0.19 µM. Regarding `COc1ccc2[nH]cc(CCc3nc4ccccc4c(=O)n3-c3cccc(C(F)(F)F)c3)c2c1` [Example 37], the IC50 under setting [2] worked out at 0.13 µM. The same measure, in the same setting: the result for `CN(C)c1cccc(-n2c(CCc3c[nH]c4ccc(Br)cc34)nc3ccccc3c2=O)c1` [Example 38] reads 0.016 ± 0.001 µM. Still for that read-out and setting: the same measure for `CN(C)c1cccc(-n2c(CCc3c[nH]c4ccc(Cl)cc34)nc3ccccc3c2=O)c1` [Example 39]: 0.013 µM; for `O=c1c2ccccc2nc(CCc2c[nH]c3ccc(Br)cc23)n1-c1cccc(N2CCCC2)c1` [Example 40]: 0.022 ± 0.003 µM; for `COc1cc(OC)cc(-n2c(CCc3c[nH]c4ccccc34)nc3ccccc3c2=O)c1` [Example 41]: 1.8 µM. In the case of `O=c1c2ccccc2nc(CCc2c[nH]c3ccccc23)n1-c1ccc2c(c1)OCO2` [Example 42], the half-inhibitory concentration (IC50) under setting [2] turned out to be 0.19 ± 0.04 µM. Under “mouse brain membranes”, `CCCc1cc(-n2c(CCc3c[nH]c4ccc(Br)cc34)nc3ccccc3c2=O)ccc1OC` [Example 43] displayed an inhibition at 1 µM of 85%. Regarding `CCOc1ccc(-n2c(CCc3c[nH]c4ccc(Br)cc34)nc3ccccc3c2=O)cc1C` [Example 44], the IC50 under setting [2] came to 0.065 µM. The same measure, in the same setting: the same measure for `COc1ccc(-n2c(CCc3c[nH]c4ccc(Br)cc34)nc3ccccc3c2=O)cc1C` [Example 45]: 0.029 µM. Still for that read-out and setting: the result for `COc1ccc(-n2c(CCc3c[nH]c4ccc(Br)cc34)nc3ccccc3c2=O)cc1OC` [Example 46] reads 0.13 ± 0.03 µM; that for `CCc1ccc(-n2c(CCc3c[nH]c4ccc(Br)cc34)nc3ccccc3c2=O)cc1` [Example 47], 0.028 ± 0.004 µM; that for `CC(C)c1ccc(-n2c(CCc3c[nH]c4ccc(Br)cc34)nc3ccccc3c2=O)cc1` [Example 48], 0.037 ± 0.013 µM. For the molecule `CC(C)c1ccc(-n2c(CCc3c[nH]c4ccc(Cl)cc34)nc3ccccc3c2=O)cc1` [Example 49], the IC50 under setting [2] was 0.038 µM.

Turning to `CCCCc1ccc(-n2c(CCc3c[nH]c4ccc(Br)cc34)nc3ccccc3c2=O)cc1` [Example 50], the half-inhibitory concentration (IC50) under setting [2] was 0.93 µM. Take `COc1ccc(-n2c(CCc3c[nH]c4ccccc34)nc3ccccc3c2=O)cc1` [Example 51]: the IC50 was 0.098 ± 0.007 µM. On to `CCOc1ccc(-n2c(CCc3c[nH]c4ccc(Br)cc34)nc3ccccc3c2=O)cc1` [Example 53], for which, under setting [2], the IC50 was 0.088 ± 0.01 µM. The same measure, in the same setting: the same measure for `CCCOc1ccc(-n2c(CCc3c[nH]c4ccc(Br)cc34)nc3ccccc3c2=O)cc1` [Example 54]: 1.2 µM; for `CC(C)Oc1ccc(-n2c(CCc3c[nH]c4ccc(Br)cc34)nc3ccccc3c2=O)cc1` [Example 55]: 0.11 ± 0.02 µM; for `CCCCOc1ccc(-n2c(CCc3c[nH]c4ccc(Br)cc34)nc3ccccc3c2=O)cc1` [Example 56]: 1.1 µM. As to `CN(C)c1ccc(-n2c(CCc3c[nH]c4ccc(Br)cc34)nc3ccccc3c2=O)cc1` [Example 57], the IC50 under setting [2] was found to be 0.033 ± 0.006 µM.

`CN(C)c1ccc(-n2c(CCc3c[nH]c4ccc(Cl)cc34)nc3ccccc3c2=O)cc1` [Example 58]: the IC50 under setting [2] came out at 0.087 µM. On the same count and under the same terms, the same measure for `CCN(CC)c1ccc(-n2c(CCc3c[nH]c4ccc(Br)cc34)nc3ccccc3c2=O)cc1` [Example 59]: 0.047 µM; for `CSc1ccc(-n2c(CCc3c[nH]c4ccc(Br)cc34)nc3ccccc3c2=O)cc1` [Example 60]: 0.037 ± 0.01 µM. The same measure, in the same setting: the same measure for `COc1cccc(-n2c(CC(C)c3c[nH]c4ccc(Br)cc34)nc3ccccc3c2=O)c1` (centres unmarked) [Example 63]: 0.1 µM. Turning to `COc1cccc(-n2c(CC(Cc3ccccc3)c3c[nH]c4ccccc34)nc3ccccc3c2=O)c1` (centres unmarked) [Example 65], under setting [3], the inhibition at 10 µM was found to be 70%. Regarding `CC(C)Oc1cccc(-n2c(CCc3c[nH]c4ccc(Br)cc34)nc3ccc(Cl)cc3c2=O)c1` [Example 66], testing at 1 µM (mouse brain membranes) gave an inhibition of 90%.
